Measured values: ChEMBL document CHEMBL1221244, “Total synthesis and biological evaluation of tambjamine K and a library of unnatural analogs” (Bioorg Med Chem Lett, 2010)
Active and inactive are the calls of the source. The calls are words filed in the database; no cut-off is given here.

Assays:
MDA-MB-231 [1] = assay: Antiproliferative activity against human MDA-MB-231 cells after 48 hrs by WST-1 assay; assay type: functional, cell-based; details: MDA-MB-231, 48 h
MCF7 = assay: Antiproliferative activity against human MCF7 cells assessed as cell viability at 10 uM after 48 hrs by WST-1 assay; assay type: functional; details: MCF7, 48 h, read-out: Activity
MDA-MB-231 [2] = assay: Antiproliferative activity against human MDA-MB-231 cells assessed as cell viability at 10 uM after 48 hrs by WST-1 assay; assay type: functional; details: MDA-MB-231, 48 h, read-out: Activity
NCI-H520 = assay: Antiproliferative activity against human NCIH520 cells after 48 hrs after 48 hrs by WST-1 assay; assay type: functional, cell-based
HCT-116 = assay: Antiproliferative activity against human HCT116 cells after 48 hrs by WST-1 assay; assay type: functional, cell-based; details: HCT-116, 48 h
Caco-2 = assay: Antiproliferative activity against human Caco-2 cells; assay type: functional, cell-based
SW-620 = assay: Antiinvasive activity against human SW620 cells at 10 uM after 24 hrs; assay type: functional, cell-based

| IC50 (MDA-MB-231 [1]) | IC50 (HCT-116) | Structure (SMILES) | viability at 10 µM (MCF7) | further results |
| --- | --- | --- | --- | --- |
| 4 µM | 1.8 µM | COC1=CC(c2ccc[nH]2)=N/C1=C\NC1CCCc2ccccc21 (configuration not stated) | < 10% | viability at 10 µM (MDA-MB-231 [2]): 40%; Activity (NCI-H520): inactive |
| 0.36 µM | 0.14 µM | CO[C@@H]1CC(c2ccc[nH]2)=N[C@]12O[C@@H](C)C[C@@H]1CCCCCCCc3ccc([nH]3)[C@H]12 [MARINEOSIN A] |  |  |
|  |  | COC1=CC(c2ccc[nH]2)=N/C1=C\NCC1CCCCC1 | < 20% |  |
|  |  | COC1=CC(c2ccc[nH]2)=N/C1=C\NC1CCc2ccccc21 (configuration not stated) | < 20% |  |
| 15.3 µM | 13.7 µM | COC1=CC(c2ccc[nH]2)=N/C1=C\NCCC(C)C [TAMBJAMINE K] |  | IC50 (Caco-2): 0.0033 µM |
| 3.5 µM | 3.6 µM | COC1=CC(c2ccc[nH]2)=N/C1=C/c1ccc(CCCCCCC/C=C/C(C)=O)[nH]1 |  |  |
|  |  | CCCC(C)N/C=C1\N=C(c2ccc[nH]2)C=C1OC (configuration not stated) | < 20% |  |
|  |  | COC1=CC(c2ccc[nH]2)=N/C1=C\NC1Cc2ccccc2C1 | < 20% | Activity (SW-620): inactive |
